In US11679097B2, “Combination product containing limonoid compound and biguanide compound” (ZHEJIANG YANGSHENGTANG INSTITUTE OF NATURAL MEDICATION CO., …, priority 2017, dated 2023):

How the values were obtained:
Format in all cases: in vivo
STZ mice = test: Blood glucose in mouse pancreatic islet β-cell injury model (Example 1); conditions: STZ ICR mice; single administration 0.02 g/kg per day by gavage, two weeks; 1 h after last administration
Excerpt: Effects of a Limonoid Compound, Metformin or a Combination Thereof on Blood Glucose in a Mouse Pancreatic Islet β-Cell Injury Model In this example, a mouse pancreatic islet β-cell injury model was established by modeling ICR mice with streptozotocin (STZ) (referred to the prior art literature: Li Nan et al., Protective effect of pine pollen on kidney damage in diabetic nephropathy mice, Science and Technology Review, 2014, 32 (4/5): 95-99), and used to complete the evaluation of hypoglycemic effect in animals (this model could simulate pancreatic islet β-cell damage state of type I and type II diabetics). […] Conditions of experimental feeding: ICR mice (20±2 g), aged 6 weeks, purchased from Zhejiang Academy of Medical Sciences, and subjected to experimental feeding after 7 days of preliminary feeding. […] The experimental feed was mouse growth-stable feed (GB […]), and the daily feeding and management of the animals were under the responsibility of the animal security department, which provided the animals with sufficient padding and fresh drinking water daily. Experimental grouping: 15 male mice were randomly selected as the normal control group. […] Gavage doses: the gavage dose was 0.02 g/kg per day for the limonin group, the gavage dose was 0.02 g/kg per day for the isolimonic acid group, the gavage dose was 0.02 g/kg per day for the limonin 17-β-D-glucopyranoside group, the gavage dose of metformin was 0.02 g/kg per day for the metformin group, limonin at a dose of 0.01 g/kg and metformin at a dose of 0.01 g/kg were simultaneously gavaged per day for the limonin/metformin combination group, isolimonic acid at a dose of 0.01 g/kg and metformin at a dose of 0.01 g/kg were simultaneously gavaged per day for the isolimonic acid/metformin combination group, limonin 17-β-D-glucopyranoside at a dose of 0.01 g/kg and metformin at a dose of 0.01 g/kg were simultaneously gavaged per day for the limonin 17-β-D-glucopyranoside/metformin combination group, isolimonic acid 17-β-D-glucopyranoside at a dose of 0.01 g/kg and metformin at a dose of 0.01 g/kg were simultaneously gavaged per day for the isolimonic acid 17-β-D-glucopyranoside/metformin combination group, the gavage volume was 10 mL/kg, and the normal group and the model group were administrated with 10 mL/kg of distilled water. […] SPSS 16.0 software was used for statistical analysis. The data were expressed as mean and standard deviation. The data before and after were analyzed by t-test, and P<0.05 was considered statistically significant.

db/db mice [1] = test: Blood glucose and leptin in mouse model of type II diabetes (Example 2); conditions: single administration 0.04 g/kg per day by gavage, two weeks; for Leptin: serum, Elisa; for Blood glucose value: 1 h after last administration
Excerpt: Effects of a Limonoid Compound, Metformin or a Combination Thereof on Blood Glucose and Leptin in a Mouse Model of Type II Diabetes In the present example, db/db mice (line name BKS.Cg-Dock7^m+/+ Lepr^db/Nju) were used to perform hypoglycemic efficacy evaluation test of animals (blood glucose level and leptin). […] Conditions for experimental feeding: as type II diabetes model mice, 6-week-old SPF-grade db/db mice were purchased from the Nanjing Model Biology Institute, and subjected to experimental feeding after 7 days of preliminary feeding. […] The experimental feed was mouse growth-stable feed (GB […]), and the daily feeding and management of the animals were under the responsibility of the animal security department, which provided the animals with sufficient padding and fresh drinking water daily. Experimental grouping: male db/db mice (20±2 g) were selected, and 18 male mice in each group were tested. […] Gavage doses: obacunone at a dose of 0.04 g/kg was gavaged per day for the obacunone group, isoobacunoic acid at a dose of 0.04 g/kg was gavaged per day for the isoobacunoic acid group, obacunone 17-β-D-glucopynoside at a dose of 0.04 g/kg was gavaged per day for the obacunone 17-β-D-glucopynoside group, metformin at a dose of 0.04 g/kg was gavaged per day for the metformin group, obacunone at a dose of 0.02 g/kg and metformin at a dose of 0.02 g/kg were simultaneously gavaged per day for the obacunone/metformin combination group, isoobacunoic acid at a dose of 0.02 g/kg and metformin at a dose of 0.02 g/kg were simultaneously gavaged per day for the isoobacunoic acid/metformin combination group, obacunone 17-β-D-glucopynoside at a dose of 0.02 g/kg and metformin at a dose of 0.02 g/kg were simultaneously gavaged per day for the obacunone 17-β-D-glucopynoside/metformin combination group, the gavage volume was 10 mL/kg, and the normal group and the model group were administrated with 10 mL/kg of distilled water. […] The data were expressed as mean and standard deviation. The data before and after were analyzed by t-test, and P<0.05 was considered statistically significant.

db/db mice [2] = test: Blood glucose and insulin in mouse model of type II diabetes (Example 4); conditions: single administration 0.2 g/kg per day by gavage, two weeks; for Insulin: serum, Elisa
Excerpt: Effects of a Limonoid Compound, Metformin or a Combination Thereof on Blood Glucose and Insulin in a Mouse Model of Type II Diabetes
In the present embodiment, the limonoid compound selected nomilin, deacetylnomilin, nomilin acid, deactylnomilin 17-β-D-glucopyranoside, and a nomilin single administration group, deacetylnomilin single administration group, nomilin acid single administered group, deactylnomilin 17-β-D-glucopyranoside single administration group, and combination thereof with metformin administration groups were set, respectively.
Conditions for experimental feeding: as type II diabetes model mice, 6-week-old SPF-grade db/db mice were purchased from the Nanjing Model Biology Institute, and subjected to experimental feeding after 7 days of preliminary feeding. It should be noted that the conditions for raising the mice were as follows: the temperature was 23±1° C., the humidity was 55±10%, the lights were turned on between 7 am and 7 pm (the lights were turned off at other time), and the mice were allowed to access to water and feed freely. The experimental feed was mouse growth-stable feed (GB M2118), and the daily feeding and management of the animals were under the responsibility of the animal security department, which provided the animals with sufficient padding and fresh drinking water daily.
Experimental grouping: male db/db mice (20±2 g) were selected, 18 male mice in each group were tested, and drinking bottles were sterilized weekly. The experimental groups included the normal control group (db/m, n=18), the model group (db/db, n=18), the nomilin group (db/db, n=18), the deacetylnomilin group (db/db, n=18), the nomilin acid group (db/db, n=18), the deactylnomilin 17-β-D-glucopyranoside group (db/db, n=18), the metformin group (db/db, n=18), the nomilin/metformin combination group (db/db, n=18), the deacetylnomilin/metformin combination group (db/db, n=18), the nomilin acid/metformin combination group (db/db, n=18), the deactylnomilin 17-β-D-glucopyranoside/combination group (db/db, n=18).
Gavage doses: nomilin at a dose of 0.2 g/kg was gavaged per day for the nomilin group, deacetylnomilin at a dose of 0.2 g/kg was gavaged per day for the deacetylnomilin group, nomilin acid at a dose of 0.2 g/kg was gavaged per day for the nomilin acid group, deacetylnomilin […] at a dose of 0.2 g/kg was gavaged per day for the deactylnomilin glucopyranoside group, metformin at a dose of 0.2 g/kg was gavaged per day for the metformin group, nomilin at a dose of 0.1 g/kg and metformin at a dose of 0.1 g/kg were simultaneously gavaged per day for the nomilin/metformin combination group, nomilin acid at a dose of 0.1 g/kg and metformin at a dose of 0.1 g/kg were simultaneously gavaged per day for the nomilin acid/metformin combination group, deacetylnomilin at a dose of 0.1 g/kg and metformin at a dose of 0.1 g/kg were simultaneously gavaged per day for the deacetylnomilin/metformin combination group, deactylnomilin 17-β-D-glucopyranoside at a dose of 0.1 g/kg and metformin at a dose of 0.1 g/kg were simultaneously gavaged per day for the deactylnomilin 17-β-D-glucopyranoside/metformin combination group, the gavage volume was 10 mL/kg, and the normal group and the model group were administrated with 10 mL/kg of distilled water. Two weeks later, the blood glucose values were measured by tail trimming method (Johnson's blood glucose meter) 1 h after the last administration, and serum insulin levels were measured with blood collected from orbital cavity by enzyme-linked immunosorbent assay (Elisa), and the average of each group was obtained. SPSS 16.0 software was used for statistical analysis. The data were expressed as mean and standard deviation. The data before and after were analyzed by t-test, and P<0.05 was considered statistically significant.

ICR mice = test: Body weight, triglycerides and total cholesterol in obesity mouse model (Example 6); conditions: high-fat feed ICR mice, single administration 0.1 g/kg per day by gavage, two weeks
Excerpt: Effects of a Limonoid Compound, Metformin or a Combination Thereof on Body Weight, Triglycerides, and Total Cholesterol in an Obesity Mouse Model
In this example, ICR mice were used to complete the experiment for evaluation of lipid lowering and weight loss in animals (body weight, serum cholesterol, and serum triglycerides).
In this example, the limonoid compound was nomilin, and a metformin single administration group, nomilin single administration group, and metformin/nomilin combination administration groups (dose A and B groups) were set, respectively.
Conditions of experimental feeding: ICR mice, purchased from the Animal Center of Zhejiang Academy of Medical Sciences, half male and half female, body weight (20±2 g), fed with basic feed provided by the Animal Center of Zhejiang Medical Academy. It should be noted that the conditions for raising the mice were as follows: the temperature was 23±1° C., the humidity was 55±10%, the lights were turned on between 7 am and 7 pm (the lights were turned off at other time), and the mice were allowed to access to water and feed freely. The daily feeding and management of the animals were under the responsibility of the animal security department, which provided the animals with sufficient padding and fresh drinking water daily.
The ICR mice were randomly divided into the normal group and the high-fat feed group, according to body weight. The normal group was fed with ordinary feed from the beginning to the end of the experiment.
Gavage dose: nomilin at a dose of 0.1 g/kg was gavaged per day for the nomilin group, metformin at a dose of 0.1 g/kg was gavaged per day for the metformin group, nomilin at a dose of 0.05 g/kg and metformin at a dose of 0.05 g/kg were simultaneously gavaged per day for the combination dose group A, nomilin at a dose of 0.1 g/kg and metformin at a dose of 0.1 g/kg were simultaneously gavaged per day for the combination dose group B, the gavage volume was 10 mL/kg, and the normal group and the model group were administrated with 10 mL/kg of distilled water. Two weeks later, the mice were weighed, blood sampled from orbital cavity, measured to determine serum total cholesterol and triglyceride levels, and the average values of each group were obtained. SPSS 16.0 software was used for statistical analysis. The data were expressed as mean and standard deviation. The data before and after were analyzed by t-test, and P<0.05 was considered statistically significant.

Compound | Blood glucose value (STZ mice) [mmol/L] | Leptin (db/db mice [1]) [pg/mL] | Blood glucose value (db/db mice [1]) [mmol/L] | also measured
CC1(C)O[C@H]2CC(=O)OC[C@]23[C@H]2CC[C@@](C)([C@@H](O[C@@H]4O[C@H](CO)[C@@H](O)[C@H](O)[C@H]4O)c4ccoc4)[C@@]4(O[C@@H]4C(=O)O)[C@]2(C)C(=O)C[C@@H]13 [Limonin 17-β-D-glucopyranoside, limonin 17-β-D-glucopyranoside] | 18.9 ± 2.2 |  |  | 
obacunone 17-β-D-glucopynoside |  | 28.55 ± 4.00 | 13.67 ± 2.9 | 
isolimonic acid 17-β-D-glucopyranoside | 17.9 ± 2.8 |  |  | 
nomilin acid |  |  |  | Blood glucose value (db/db mice [2]; 1 h after last administration): 11.0 ± 4.1 mmol/L
CC1(C)O[C@@H](CC(=O)O)[C@]2(C)[C@H]3CC[C@@]4(C)[C@H](c5ccoc5)OC(=O)[C@H]5O[C@]54[C@]3(C)C(=O)C[C@@H]12 [Isoobacunoic acid, isoobacunoic acid] |  | 27.68 ± 3.25 | 14.66 ± 3.1 | 
CC1(C)OC(=O)C[C@H](O)[C@]2(C)[C@H]3CC[C@@]4(C)[C@H](c5ccoc5)OC(=O)[C@H]5O[C@]54[C@]3(C)C(=O)C[C@@H]12 [deacetylnomilin] |  |  |  | Insulin (db/db mice [2]): 8.59 ± 2.61 pg/mL
isolimonic acid | 18.2 ± 3.1 |  |  | 
CC1(C)O[C@H]2CC(=O)OC[C@]23[C@H]2CC[C@@]4(C)[C@H](c5ccoc5)OC(=O)[C@H]5O[C@]54[C@]2(C)C(=O)C[C@@H]13 [Limonin, limonin] | 19.5 ± 1.8 |  |  | 
CC1(C)OC(=O)C=C[C@]2(C)[C@H]3CC[C@@]4(C)[C@H](c5ccoc5)OC(=O)[C@H]5O[C@]54[C@]3(C)C(=O)C[C@@H]12 [Obacunone, obacunone] |  | 25.99 ± 3.92 | 12.71 ± 2.8 | 
CC(=O)O[C@H]1CC(=O)OC(C)(C)[C@@H]2CC(=O)[C@]3(C)[C@H](CC[C@@]4(C)[C@H](c5ccoc5)OC(=O)[C@H]5O[C@]543)[C@@]12C [Nomilin, nomilin] |  |  |  | Insulin (db/db mice [2]): 8.82 ± 3.42 pg/mL; Body weight gaining rate (ICR mice): 6.17%; Total cholesterol (ICR mice; serum): 3.09 ± 0.16 mmol/L; Triglycerides (ICR mice; serum): 1.08 ± 0.33 mmol/L
